# Laboratory results: paper PMC9628480, “Discovery and structural characterization of chicoric acid as a SARS-CoV-2 nucleocapsid protein ligand and RNA binding disruptor” (Scientific Reports, 2022)
# Values joined by “and” are separate entries in the source; they are usually repeats but may differ in a detail not shown here. Equal values may be shown once. Read-outs that look alike come from different tables or passages of the source. Numbered stars: 1 amine (or outer) side, 2 acyl side, 3 side chain; on linkers, the order of the positions; unused ones are H or OH. Bridge positions count the residues as written; N and C are the ends. Square brackets hold non-standard residues; d marks the D form. Peptide text beside a SMILES is read from it. * marks the point of attachment. hTyr(3S-OH,4S-OH,3'-OSO3H) = N[C@H](C(=O)O)[C@H](O)[C@@H](O)c1ccc(O)c(OS(=O)(=O)O)c1; Orn(4R-OH,5R-OH) = O=C([C@H](C[C@@H](O)[C@@H](O)N[*:3])N[*:1])[*:2]; Pro(3S-OH,4S-Me) = C[C@H]1CN[C@H](C(=O)O)[C@H]1O; X1 = CCCCCOc1ccc(-c2cc(-c3ccc(C(=O)*)cc3)no2)cc1; Gln(3R-OH) = NC(=O)C[C@@H](O)[C@H](N)C(=O)O; X2 = CC(C)CCCCCCCCC[C@H](CC(=O)[*:1])O[*:2]; Hyp = O=C(O)[C@@H]1C[C@@H](O)CN1
# Assays:
# [1] = target: T1, SARS-CoV-2 N protein-RNA1 interaction (Severe acute respiratory syndrome coronavirus 2, UniProt P0DTC9); assay: Primary FP HTS at 20 µM compound; type: binding; conditions: compound 20 µM
# T1 construct: made in house; host or cells: Escherichia coli BL21 (DE3)
# [2] = target: T1, SARS-CoV-2 N protein-RNA1 interaction; assay: biochemical; type: binding; conditions: for loss in IC50 values in comparison to CA: single carboxylate at C1 versus CA
# multiple human viruses = conditions: cited from earlier work
# N protein-RNA1 complex = target: T2, N protein-RNA1 complex (Severe acute respiratory syndrome coronavirus 2, UniProt P0DTC9); type: binding, SARS-CoV-2; conditions: protein:compound 1:2 ratio
# T2 construct: made in house; host or cells: Escherichia coli BL21 (DE3)
# [3] = target: T3, SARS-CoV-2 N protein (full-length) (Severe acute respiratory syndrome coronavirus 2, UniProt P0DTC9); assay: DLS aggregation assay of N protein; conditions: compound 20 µM, two-fold molar excess
# T3 construct: made in house; host or cells: Escherichia coli BL21 (DE3)
# Experimental: Aggregation assays were performed with the full-length N protein diluted to 10 µM in 50 mM sodium phosphate buffer, 100 mM NaCl (pH, 7.6), with subsequent addition of 20 µM of each test compounds or 1% DMSO used as diluent. […] Samples were evaluated by DLS in a ZetaSizer NanoS (Malvern) equipment, at 10 °C, using default parameters set by the equipment.
# SARS-CoV-2 [4] = assay: SARS-CoV-2 replication assay in Calu-3 cells (plaque assay); type: cell-based
# SARS-CoV-2 [5] = assay: SARS-CoV-2 replication assay in Vero CCL81 cells (plaque assay); type: cell-based
# SARS-CoV-2 particles = assay: Virucidal assay in Vero CCL-81 cells; type: cell-based; conditions: particles incubated with CA 25 or 100 µM for 1 h
# SARS-CoV-2 [6] = conditions: cited from earlier work
# [7] = read-out: IC50 for blocking the N protein-RNA1 interaction
# [8] = IC50 for blocking the N protein-RNA1 interaction
Compound,"IC50 [2, 8]",also measured
C[C@@H]1O[C@@H](O[C@@H]2[C@@H](O)[C@H](OCCc3ccc(O)c(O)c3)O[C@H](CO)[C@H]2OC(=O)/C=C/c2ccc(O)c(O)c2)[C@H](O)[C@H](O)[C@H]1O [verbascoside],,N protein-RNA1 disruption [1]: low
CCCCCCCCCCCCCCCc1cccc(O)c1C(=O)O [Anacardic Acid],,"IC50 [2, 7]: 7.7 µM"
O=C1O[C@H]2[C@@H]3OC(=O)c4cc(O)c(O)c(O)c4-c4c(O)c(O)c5oc(=O)c6c(c(O)c(O)c7oc(=O)c4c5c76)-c4c(cc(O)c(O)c4O)C(=O)OC[C@H]3OC(O)[C@@H]2OC(=O)c2cc(O)c(O)c(O)c2-c2c1cc(O)c(O)c2O (mixture of isomers) [Punicalagin],0.7 µM,in vitro antiviral potencies (multiple human viruses): low micromolar range; binding affinity of the N protein to RNA1 in the presence of compound (N protein-RNA1 complex): significantly reduced; effect on hydrodynamic radius (Rh) / oligomeric state of the N protein (DLS) [3]: appears to cause N protein aggregation
Cc1cc2c(C(C)C)c(O)c(O)c(C=O)c2c(O)c1-c1c(C)cc2c(C(C)C)c(O)c(O)c(C=O)c2c1O [Gossypol acetic acid],7.1 µM,
L-Chicoric acid,,antiviral activity at 25 and 100 µM (SARS-CoV-2 [4]): antiviral activity at 100 µM only; reduction in infectious viral load (SARS-CoV-2 [4]): 100 fold; antiviral activity at 25 and 100 µM (SARS-CoV-2 [5]): antiviral activity at 100 µM only; reduction in infectious viral load (SARS-CoV-2 [5]): tenfold; virucidal activity against SARS-CoV-2 (SARS-CoV-2 particles): slight virucidal activity
CC1=NN(c2ccc(C)c(C)c2)C(=O)/C1=N\Nc1cccc(-c2cccc(C(=O)O)c2)c1O [Eltrombopag],7.1 µM and 8.1 µM,
O=C(O)C[C@@H]1C(=O)O[C@H]2[C@H](OC(=O)c3cc(O)c(O)c(O)c3)[C@@H](OC(=O)c3cc(O)c(O)c4c3[C@H]1[C@H](O)C(=O)O4)[C@H](OC(=O)c1cc(O)c(O)c(O)c1)O[C@@H]2COC(=O)c1cc(O)c(O)c(O)c1 [Chebulinic acid],,in vitro antiviral potencies (multiple human viruses): low micromolar range
O=C1OC[C@H]2OC(O)[C@H](O)[C@@H](O)[C@@H]2OC(=O)c2cc(O)c(O)c(O)c2-c2c(O)c(O)c3oc(=O)c4c(c(O)c(O)c5oc(=O)c2c3c54)-c2c1cc(O)c(O)c2O (mixture of isomers) [Punicalin],0.7 µM,in vitro antiviral potencies (multiple human viruses): low micromolar range
O=C(O[C@@H]1O[C@@H]2COC(=O)c3cc(O)c(O)c(O)c3-c3c(cc(O)c(O)c3O)C(=O)O[C@H]([C@H]1O)[C@@H]2O)c1cc(O)c(O)c(O)c1 [Corilagin],2.4 µM,
CCCCCCCCCCCC1=C(O)C(=O)C=C(O)C1=O [Embelin],5 µM,
COc1ccc2c(O[C@@H]3C[C@H]4C(=O)N[C@]5(C(=O)NS(=O)(=O)C6CC6)C[C@H]5/C=C\CCCCN(C)C(=O)[C@@H]4C3)cc(-c3nc(C(C)C)cs3)nc2c1C [Simeprevir],16.5 µM,
COc1ccc2cc(-c3cc(-c4cc(Cl)cc(Cl)c4)nn3[C@@H](C)c3ccc(C(=O)NCCC(=O)O)cc3)ccc2c1 [MK 0893],14.4 µM,
O=S(=O)(O)c1ccc(N=C2C=CC(=C(c3ccc(Nc4ccc(S(=O)(=O)O)cc4)cc3)c3ccc(Nc4ccc(S(=O)(=O)O)cc4)cc3)C=C2)cc1 [Methyl Blue],,"IC50 [2, 7]: 4.2 µM"
O=c1ccc2[n+]([O-])c3ccc(O)cc3oc-2c1 [Resazurin],10.5 µM,
O=C(NCc1ccc(Oc2ccccc2)cc1)c1nc(-c2cc(Br)c(O)c(Br)c2)no1 [IOWH-032],,"IC50 [2, 7]: 7.7 µM"
Cc1cc(/C=C(\C#N)C(=O)Nc2cccc(Br)c2)c(C)n1-c1ccc(C(=O)O)cc1 [RNPA1000],,"IC50 [2, 7]: 9.6 µM"
O=C(O)c1cc(O)c(O)c(O)c1 [Gallic acid],23.3 µM,
"CCCCCOc1ccc(-c2cc(-c3ccc(C(=O)N[C@H]4C[C@@H](O)[C@@H](O)NC(=O)[C@@H]5[C@@H](O)[C@@H](C)CN5C(=O)[C@H]([C@H](O)CC(N)=O)NC(=O)[C@H]([C@H](O)[C@@H](O)c5ccc(O)c(OS(=O)(=O)O)c5)NC(=O)[C@@H]5C[C@@H](O)CN5C(=O)[C@H]([C@@H](C)O)NC4=O)cc3)no2)cc1 [Micafungin] (X1-[Orn(4R-OH,5R-OH)]T[Hyp][hTyr(3S-OH,4S-OH,3'-OSO3H)][Gln(3R-OH)][Pro(3S-OH,4S-Me)]; lactam 1-C)",10.4 µM,
O=C(/C=C/c1ccc(O)c(O)c1)O[C@H](Cc1ccc(O)c(O)c1)C(=O)O [rosmarinic acid],,N protein-RNA1 disruption [1]: low
CC(C)=CCOc1ccc(/C=C/C(=O)c2ccc(OCC=C(C)C)cc2OCC(=O)O)cc1 [Sofalcone],18.5 µM,
O=C(OC[C@H]1O[C@@H](OC(=O)c2cc(O)c(O)c(O)c2)[C@H](OC(=O)c2cc(O)c(O)c(O)c2)[C@@H](OC(=O)c2cc(O)c(O)c(O)c2)[C@@H]1OC(=O)c1cc(O)c(O)c(O)c1)c1cc(O)c(O)c(O)c1 [Pentagalloylglucose],11.6 µM,

Compound,"IC50 [2, 8]",also measured
CCCCCCO[C@@H](C)c1cccc(-c2csc(NC(=O)c3cc(Cl)c(/C=C(\C)C(=O)O)c(Cl)c3)n2)c1OC [Lusutrombopag],6 µM,
C[C@@H](O)[C@H]1C(=O)N2C(C(=O)O)=C(S[C@@H]3CN[C@H](C(=O)Nc4cccc(C(=O)O)c4)C3)[C@H](C)[C@H]12 [Ertapenem sodium],,"IC50 [2, 7]: 13.8 µM"
"C[C@@H]1NC(=O)[C@@H]2CCCN2C(=O)[C@H](CC(N)=O)NC(=O)[C@@H]2CSSC[C@H](N)C(=O)N[C@H]3CSSC[C@H](NC1=O)C(=O)N[C@@H]([C@@H](C)O)C(=O)NCC(=O)N[C@H](C(=O)N[C@@H](Cc1ccc(O)cc1)C(=O)O)CSSC[C@H](NC(=O)[C@H](Cc1ccc(O)cc1)NC(=O)[C@H](CCC(=O)O)NC3=O)C(=O)N2 [Linaclotide] (H-CCEYCCNPACTGCY-OH; disulfide 1-6, 2-10, 5-13)",5.5 µM,
COc1cc(C(=O)O)ccc1NC(=O)[C@@H]1N[C@@H](CC(C)(C)C)[C@](C#N)(c2ccc(Cl)cc2F)[C@H]1c1cccc(Cl)c1F [Idasanutlin],6.5 µM,
Cc1ccc(C(=O)Nc2ccc(S(=O)(=O)O)c3cc(S(=O)(=O)O)cc(S(=O)(=O)O)c23)cc1NC(=O)c1cccc(NC(=O)Nc2cccc(C(=O)Nc3cc(C(=O)Nc4ccc(S(=O)(=O)O)c5cc(S(=O)(=O)O)cc(S(=O)(=O)O)c45)ccc3C)c2)c1 [Suramin],0.8 µM,concentration reported to inhibit SARS-CoV-2 infection in cell culture (SARS-CoV-2 [6]): 20 µM
Verteporfin,,"IC50 [2, 7]: 10.8 µM"
COc1ccc2c(c1)C=C1Cn3c-2c(C2CCCCC2)c2ccc(cc23)C(=O)NS(=O)(=O)N(C)CCOCCN(C)C1=O [TMC647055],10 µM,
"O=C(/C=C/c1ccc(O)c(O)c1)O[C@@H]1CC(O)(C(=O)O)C[C@@H](OC(=O)/C=C/c2ccc(O)c(O)c2)C1O (some centres unmarked) [Isochlorogenic acid A, 3,5-dicaffeoylquinic acid]",,"IC50 [2, 7]: 5.5 µM; loss in IC50 values in comparison to CA [2]: ~ 10 fold"
Oc1c(Cl)cc(Cl)c(Cl)c1Cc1c(O)c(Cl)cc(Cl)c1Cl [Hexachlorophene],13 µM,
CC(C)CCCCCCCCC[C@@H]1CC(=O)N[C@@H](CCC(=O)O)C(=O)N[C@@H](CC(C)C)C(=O)N[C@H](CC(C)C)C(=O)N[C@@H](C(C)C)C(=O)N[C@@H](CC(=O)O)C(=O)N[C@H](CC(C)C)C(=O)N[C@@H](CC(C)C)C(=O)O1 [Surfactin] (EL[dL]VD[dL]L; linker N-C via X2),11.1 µM,
O=C(O)c1cc(O)c2c(c1)[C@H]([C@H]1c3cc(C(=O)O)cc(O)c3C(=O)c3c(O[C@@H]4O[C@H](CO)[C@@H](O)[C@H](O)[C@H]4O)cccc31)c1cccc(O[C@@H]3O[C@H](CO)[C@@H](O)[C@H](O)[C@H]3O)c1C2=O [Sennoside A],5.7 µM,
CCCCCCCC/C=C\CCCCCCCC(=O)O [Oleic acid],15.7 µM,
Tannic acid,,"IC50 [2, 7]: 1.4 µM"
"O=C(Nc1cccc2c(=O)cc(-c3nnn[nH]3)oc12)c1ccc(OCCCCc2ccccc2)cc1 [Pranlukast (hemihydrate), Pranlukast]",7.8 µM,
Cc1cc2c(C(C)C)c(O)c(O)c(C=O)c2c(O)c1-c1c(C)cc2c(C(C)C)c(O)c(O)c(C=O)c2c1O [(R)-(-)-Gossypol acetic acid],,"IC50 [2, 7]: 6.4 µM"
CC(C)(Sc1cc(C(C)(C)C)c(O)c(C(C)(C)C)c1)Sc1cc(C(C)(C)C)c(OC(=O)CCC(=O)O)c(C(C)(C)C)c1 [Succinobucol],8.1 µM,
"O=C(/C=C/c1ccc(O)c(O)c1)O[C@H]1[C@H](O)C[C@](O)(C(=O)O)C[C@H]1OC(=O)/C=C/c1ccc(O)c(O)c1 [4,5-Dicaffeoylquinic acid]",,"IC50 [2, 7]: 3 µM; loss in IC50 values in comparison to CA [2]: ~ 10 fold"
Oc1c(Cl)cc(Cl)cc1Sc1cc(Cl)cc(Cl)c1O [Bithionol],23 µM,
Cc1ccnc(NS(=O)(=O)c2ccc(N)cc2)n1 [Sulfamerazine],6.5 µM,
CN(Cc1ccc(C(C)(C)C)cc1)Cc1cccc2ccccc12 [Butenafine],15.7 µM,
COc1cc(C(=O)NS(=O)(=O)c2ccccc2C)ccc1Cc1cn(C)c2ccc(NC(=O)OC3CCCC3)cc12 [Zafirlukast],10.4 µM,
